Experimental findings from BindingDB's records for doi:10.7270/Q2W37TR5 (Nmmlsc, 2009) are described below.

The test deals with Ras-related C3 botulinum toxin substrate 1 (Mus musculus, UniProt P63001). Briefly: analog inhibition of wildtype Rac1 nucleotide loading – biochemical, additional analogs, multiplex bead flow cytometry, SAR follow-up (AID 2040).
The mark [1] stands for this setting: inactive by the depositor's call.

The molecule `O=C1Nc2c(Cl)cccc2C1=C1Nc2ccccc2C1=O` returned an EC50 of 30 µM.

In the case of `O=C1Nc2c(Br)cccc2C1=C1Nc2ccccc2C1=O`, the 50% effective concentration (EC50) worked out at 30 µM.

Turning to `O=C1Nc2c(F)cccc2C1=C1Nc2ccccc2C1=O`, a half-maximal response (EC50) required 34.6 µM.

`O=C1NC(=O)/C(=C2/C(=O)Nc3ccccc32)N1` had an EC50 of 2.64 µM. This EC50 lies about 13-fold lower than the previous one.

`O=C1Nc2cccc(Br)c2/C1=C1/Cc2ccccc2C1=O`: it took 12.1 µM to reach a half-maximal effect under setting [1] (EC50). This lies in the double-digit micromolar range.

`O=C1Nc2ccc(Br)cc2C1=C1Nc2ccccc2C1=O` had an EC50 of 16.1 µM. In other words, the double-digit micromolar range.

Consider `COc1ccc(S(=O)(=O)n2c(N)c(C#N)c(-c3ccccc3)c2C(=O)c2ccc(Br)cc2)cc1`, for which the EC50 under setting [1] was 30 µM.

As to `O=[N+]([O-])c1ccc(C#Cc2ccccc2)cc1`, under setting [1], the midpoint of the response, the EC50, lay at 30 µM. This counts as double-digit micromolar.

`O=C(C#Cc1ccccc1)c1ccc(OC(F)(F)F)cc1`: the EC50 under setting [1] was 30 µM.

With `COc1ccc(C(=O)C#Cc2ccccc2)cc1` [1-(4-methoxyphenyl)-3-phenyl-2-propyn-1-one], under setting [1], the concentration giving a half-maximal response (EC50) came out at 30 µM.

Under setting [1], `O=C(C#Cc1ccccc1)c1ccc([N+](=O)[O-])cc1` [1-(4-nitrophenyl)-3-phenyl-2-propyn-1-one] gave an EC50 of 30 µM.

As to `COc1ccc2cc(CC(=O)O)ccc2c1` [2-(6-methoxynaphthalen-2-yl)ethanoic acid], the midpoint of the response under setting [1], the EC50, lay at 30 µM.

For the molecule `CC(=O)Oc1ccccc1C(=O)O` [2-(acetyloxy)benzoic acid], under setting [1], a half-maximal response (EC50) required 30 µM.

Regarding `O=C1Nc2ccccc2/C1=C1/Nc2ccccc2C1=O` [2-[(3Z)-2-oxo-2,3-dihydro-1H-indol-3-ylidene]-2,3-dihydro-1H-indol-3-one], the EC50 was 30 µM. That is a double-digit micromolar value.

The molecule `CCCCS(=O)(=O)n1c(N)c(C#N)c(-c2cc(OC)c(OC)c(OC)c2)c1C(=O)c1ccccc1` [2-amino-5-benzoyl-1-butylsulfonyl-4-(3,4,5-trimethoxyphenyl)-3-pyrrolecarbonitrile] showed an EC50 under setting [1] of 30 µM. In other words, the double-digit micromolar range.

Regarding `COc1ccc(S(=O)(=O)n2c(N)c(C#N)c(-c3cncc(Br)c3)c2C(=O)c2ccccc2)cc1` [2-amino-5-benzoyl-4-(5-bromo-3-pyridinyl)-1-(4-methoxyphenyl)sulfonyl-3-pyrrolecarbonitrile], the EC50 under setting [1] was determined as 9.84 µM.

As to `COc1ccc(-c2c(C#N)c(N)n(S(C)(=O)=O)c2C(=O)c2ccccc2)cc1Br` [2-azanyl-4-(3-bromanyl-4-methoxy-phenyl)-1-methylsulfonyl-5-(phenylcarbonyl)pyrrole-3-carbonitrile], the response under setting [1] was half-maximal at 30 µM (EC50).

Consider `COc1cc(-c2c(C#N)c(N)n(S(=O)(=O)c3c(C(C)C)cc(C(C)C)cc3C(C)C)c2C(=O)c2ccccc2)cc(OC)c1OC` [2-azanyl-5-(phenylcarbonyl)-4-(3,4,5-trimethoxyphenyl)-1-[2,4,6-tri(propan-2-yl)phenyl]sulfonyl-pyrrole-3-carbonitrile], for which the concentration giving a half-maximal response (EC50) under setting [1] worked out at 75.3 µM.

In turn, `O=C1N=c2ccccc2=C1c1[nH]c2ccccc2c1NO` [3-[3-(hydroxyamino)-1H-indol-2-yl]-2-indolone] yielded an EC50 of 30 µM.

On to `O=C(C#Cc1ccccc1)c1cccnc1` [3-phenyl-1-pyridin-3-ylprop-2-yn-1-one], for which the EC50 under setting [1] was 30 µM.

For the molecule `COC(=O)c1ccc(C(=O)C#Cc2ccccc2)cc1` [4-(1-oxo-3-phenylprop-2-ynyl)benzoic acid methyl ester], under setting [1], the response was half-maximal at 30 µM (EC50).

`N#Cc1ccc(C(=O)C#Cc2ccccc2)cc1` [4-(3-phenylprop-2-ynoyl)benzenecarbonitrile] registered an EC50 under setting [1] of 30 µM.

The molecule `O=C1N=c2ccc(Br)cc2=C1c1[nH]c2ccccc2c1NO` [5-bromanyl-3-[3-(oxidanylamino)-1H-indol-2-yl]indol-2-one] had an EC50 of 30 µM.

In the case of `O=C1N=c2c(Br)cccc2=C1c1[nH]c2ccccc2c1NO` [7-bromanyl-3-[3-(oxidanylamino)-1H-indol-2-yl]indol-2-one], the EC50 worked out at 30 µM.

Regarding `O=C1N=c2c(Cl)cccc2=C1c1[nH]c2ccccc2c1NO` [7-chloro-3-[3-(hydroxyamino)-1H-indol-2-yl]-2-indolone], the EC50 was 30 µM. This lies in the double-digit micromolar range.

The molecule `O=C1N=c2c(F)cccc2=C1c1[nH]c2ccccc2c1NO` [7-fluoro-3-[3-(hydroxyamino)-1H-indol-2-yl]-2-indolone] gave an EC50 of 30 µM. In other words, the double-digit micromolar range.

Molecule `O=C1Nc2c(Br)cccc2/C1=C1/Cc2ccccc2C1=O` [(3E)-7-bromo-3-(3-oxo-1H-inden-2-ylidene)-1H-indol-2-one] returned an EC50 under setting [1] of 30 µM.

For `O=C1NC(=S)N/C1=C1\C(=O)Nc2ccccc21` [(3Z)-3-(5-oxo-2-sulfanylideneimidazolidin-4-ylidene)-1H-indol-2-one], the EC50 stood at 1.67 µM.

For `O=C1Nc2ccccc2/C1=C1/Cc2ccccc2C1=O` [UNM-0000305763], under setting [1], the EC50 came to 30 µM.

As to `N#Cc1c(-c2ccc(Cl)cc2)c(C(=O)c2ccccc2)n(S(=O)(=O)c2ccc([N+](=O)[O-])cc2)c1N` [UNM-0000305780], the EC50 under setting [1] turned out to be 30 µM.

On to `COc1ccc(S(=O)(=O)n2c(N)c(C#N)c(-c3cc(Br)c(OC)c(OC)c3)c2C(=O)c2ccccc2)cc1` [UNM-0000305782], for which the EC50 under setting [1] is 30 µM. In other words, the double-digit micromolar range.

`O=C(C#Cc1ccccc1)c1ccccc1[N+](=O)[O-]` [UNM-0000306038] registered an EC50 under setting [1] of 30 µM.

For the molecule `O=C(C#Cc1ccccc1)c1ccccc1` [UNM-0000306039], the half-maximal effective concentration (EC50) under setting [1] came out at 30 µM. That is a double-digit micromolar value.

In the case of `O=C(C#Cc1ccccc1)c1ccc(Cl)cc1` [UNM-0000306055], the EC50 under setting [1] was determined as 30 µM.

For the molecule `O=C(C#Cc1ccccc1)c1ccc(F)cc1` [UNM-0000306059], the EC50 under setting [1] was found to be 30 µM.

Molecule `CC1=C(CC(=O)O)c2cc(F)ccc2/C1=C/c1ccc([S+](C)[O-])cc1` (stereo not drawn) [UNM-0000306136] had an EC50 under setting [1] of 30 µM.

The molecule `C[C@@H](C(=O)O)c1cccc(Oc2ccccc2)c1` [calcium;2-(3-phenoxyphenyl)propanoic acid;hydrate] showed an EC50 of 30 µM.

Under setting [1], `CSc1ccc(/C=C2/C(C)=C(CC(=O)O)c3cc(F)ccc32)cc1` [{6-Fluoro-2-methyl-3-[1-(4-methylsulfanyl-phenyl)-meth-(E)-ylidene]-3H-inden-1-yl}-acetic acid] returned an EC50 of 54.7 µM.
